Reference: patent publication US4425350A, “5,6,6a,7-Tetrahydro-4H-dibenz(de,g)-isoquinoline derivatives, and their use for treating central nervous system disorders” (Warner-Lambert Company, priority 1980, dated 1984)

Experiments:
[1] = Prolongation of evipan sodium narcosis; assay type: in vivo
Description: 3. Prolongation of evipan sodium narcosis, Arch. Int. Pharmacodyn; 126, pgs. 219-227 (1960).

rats = test: Behavioural test in rats, modified after Irwin; assay type: in vivo
Description: 2. Behavioural test in rats, modified after Irwin, Psychopharmacologica. (Berl.); 13, pgs. 222-257 (1968).

[2] = Acute toxicity (LD50), intragastral administration, male mice; conditions: mouse, in vivo, po
dogs = test: Alphalysis (alphalytic activity) in dogs; assay type: in vivo; conditions: for alphalytic activity: from 1 mg./kg. i.v.
Experimental: 4. Alphalysis, Medizinische Wochenschrift; 81, pg. 352 (1951).
The alphalytic activity of the compounds of Examples 8 and 9 was tested on dogs.

| Structure (SMILES) | prolongation of the sleeping time in % ([1]; dosage 50 mg./kg.) | prolongation of the sleeping time in % ([1]; dosage 100 mg./kg.) | catatonia (rats; 150 mg./kg.) | muscle tonus (rats; 150 mg./kg.) | sedation (rats; 150 mg./kg.) | LD50 [2] | lowering of the body temperature (rats; 150 mg./kg.) | ptosis (rats; 150 mg./kg.) | alphalytic activity (dogs) | behaviour (change of symptoms versus 150 mg./kg.) (rats; 300 mg./kg., symptoms at 150 mg./kg.: sedation, catatonia, lowering of the body temperature) | alphalytic action after intraduodenal administration (dogs; intraduodenal) | catatonia (rats; 300 mg./kg.) | lowering of the body temperature (rats; 300 mg./kg.) | muscle tonus (rats; 300 mg./kg.) | ptosis (rats; 300 mg./kg.) | sedation (rats; 300 mg./kg.) |
| --- | --- | --- | --- | --- | --- | --- | --- | --- | --- | --- | --- | --- | --- | --- | --- | --- |
| COc1cc2c(cc1OC)-c1cc(OC)c(OC)c3c1C(C2)CN(C)C3 (racemic) [Example 10, (±)-5,6,6a,7-Tetrahydro-2,3,9,10-tetramethoxy-5-methyl-4H-dibenz(de,g)isoquinoline] | 268% | 347% | catatonia | reduced muscle tonus | sedation | ~1200 mg/kg |  |  |  |  |  |  |  |  |  |  |
| COc1cc2c(cc1OC)-c1c(OC)c(OC)cc3c1C(CNC3)C2 (racemic) [Example 7, (±)-5,6,6a,7-Tetrahydro-1,2,9,10-tetramethoxy-4H-dibenz(de,g)isoquinolin] | 147% | 324% | catatonia |  | sedation | ~600 mg/kg | lowering of the body temperature | ptosis |  |  |  |  |  |  |  |  |
| COc1cc2c3c(c1OC)CN(C)CC3Cc1cc3c(cc1-2)OCO3 (racemic) [Example 9, (±)-5,6,6a,7-tetrahydro-2,3-dimethoxy-9,10-methylenedioxy-5-methyl-4H-dibenz(de,g)isoquinoline] | 339% | 417% | catatonia |  | sedation | ~1200 mg/kg | lowering |  | a distinct alphalytic activity is detectable | strengthening of the symptoms |  |  |  |  |  |  |
| COc1cc2c(cc1OC)-c1c(OC)c(OC)cc3c1C(C2)CN(C)C3 (racemic) [Example 8, (±)-5,6,6a,7-Tetrahydro-1,2,9,10-tetramethoxy-5-methyl-4H-dibenz(de,g)isoquinoline] | 64% |  |  |  |  | 800 mg/kg |  |  | a distinct alphalytic activity is detectable |  | the action could also be confirmed after intraduodenal administration | catatonia | lowering | reduced muscle tonus | ptosis | sedation |
